Assay results published in patent US20260250318A1, “COMPOSITIONS AND METHODS FOR CROSSING THE BLOOD BRAIN BARRIER” (VOYAGER THERAPEUTICS, INC., priority 2022, published 2026).

Experiments:
[1] = test system: brains, heart, liver, muscle, and DRG of the NHPs; assay: Maturation of TTM-001 and TTM-002 capsids, NGS enrichment in NHP tissues; type: in vivo; details: relative to AAV9 control
Outline: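 Variants carry mutations within and flanking the loop IV peptide insert: positions 450–466 were triplet-randomized, while positions 449–466 received low-frequency point mutations. The combined pool went into two NHPs, and each peptide was scored by NGS enrichment ratio against AAV9.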

[2] = test system: brain; assay: Matured TTM-001 and TTM-002 variants, NGS enrichment in mouse brain; type: in vivo, mice; details: relative to AAV9 control
[3] = NGS fold-enrichment of RNA, NHP brain
[4] = NGS fold-enrichment, NHP liver DNA
[5] = NGS fold-enrichment, NHP liver RNA
[6] = NGS fold-enrichment, NHP muscle
[7] = NGS fold-enrichment, mouse brain
[8] = NGS fold-enrichment of matured AAV capsid variants, NHP brain, RNA
[9] = NGS fold-enrichment, DRG of NHPs
[10] = NGS fold-enrichment, RNA, brain of NHPs
[11] = NGS fold-enrichment, heart of NHPs
[12] = NGS fold-enrichment, liver DNA of NHPs
[13] = NGS fold-enrichment, liver RNA of NHPs
[14] = NGS fold-enrichment, muscle of NHPs
[15] = NGS fold-enrichment, brain of mice

| Sequence | Fold Enrichment relative to AAV9, Brain (NHP) [1, 8] [fold] | Fold Enrichment relative to AAV9, DRG (NHP) ([1]; NHP DRG) [fold] | Fold Enrichment relative to AAV9, Heart (NHP) ([1]; NHP heart) [fold] | Fold Enrichment relative to AAV9, Liver DNA (NHP) ([1]; NHP liver, DNA) [fold] | Fold Enrichment relative to AAV9, Liver RNA (NHP) ([1]; NHP liver, RNA) [fold] | Fold Enrichment relative to AAV9, Muscle (NHP) ([1]; NHP muscle) [fold] | Fold Enrichment relative to AAV9, Brain (Mouse) ([2]; mouse brain) [fold] | Fold Enrichment relative to AAV9, DRG (NHP) [1, 9] [fold] | Fold Enrichment relative to AAV9, Brain (NHP) [1, 10] [fold] | Fold Enrichment relative to AAV9, Heart (NHP) [1, 11] [fold] | Fold Enrichment relative to AAV9, Liver DNA (NHP) [1, 12] [fold] | Fold Enrichment relative to AAV9, Liver RNA (NHP) [1, 13] [fold] | Fold Enrichment relative to AAV9, Muscle (NHP) [1, 14] [fold] | Fold Enrichment relative to AAV9, Brain (Mouse) [2, 15] [fold] | other results |
| --- | --- | --- | --- | --- | --- | --- | --- | --- | --- | --- | --- | --- | --- | --- | --- |
| KTVNGHDSPHKSGHTQQT | – | – | – | – | – | – | – | – | – | – | – | – | – | – | Fold Enrichment relative to AAV9, Brain (NHP) [1, 3]: 82.246 fold; Fold Enrichment relative to AAV9, DRG (NHP) ([1]; NGS fold-enrichment, NHP DRG): 0.000 fold; Fold Enrichment relative to AAV9, Heart (NHP) ([1]; NGS fold-enrichment, NHP heart): 0.378 fold; Fold Enrichment relative to AAV9, Liver DNA (NHP) [1, 4]: 0.123 fold; Fold Enrichment relative to AAV9, Liver RNA (NHP) [1, 5]: 0.000 fold; Fold Enrichment relative to AAV9, Muscle (NHP) [1, 6]: 1.142 fold; Fold Enrichment relative to AAV9, Brain (Mouse) [2, 7]: 6.160 fold |
| KTINGSGSPHSKAQRTCT | 57.863 | 0.000 | 0.140 | 1.716 | 1.855 | 0.129 | 90.146 | – | – | – | – | – | – | – | – |
| KTINGSGSPHSKAQAPAT | – | – | – | – | – | – | – | 0.000 | 61.934 | 0.169 | 0.197 | 0.696 | 0.015 | 127.420 | – |
| KTEDKSGSPHSKAQNQQT | – | – | – | – | – | – | – | 0.000 | 68.813 | 0.000 | 0.000 | 0.000 | 0.000 | 70.071 | – |
| KTINGSASPHSKAHSQQT | 55.293 | 0.000 | 0.000 | 0.166 | 0.000 | 0.000 | 66.252 | – | – | – | – | – | – | – | – |
| KNVNGSGSPHSKAQNQQT | 58.481 | 0.000 | 0.000 | 0.166 | 0.917 | 0.000 | 53.379 | – | – | – | – | – | – | – | – |
| TTINGSGSPHSKAQNQQT (peptide inserted in AAV capsid) | – | – | – | – | – | – | – | 1.340 | 114.856 | 14.856 | 0.957 | 1.281 | 0.827 | 72.058 | Fold Enrichment relative to AAV9, Brain (NHP) [1, 3]: 114.856 fold; Fold Enrichment relative to AAV9, DRG (NHP) ([1]; NGS fold-enrichment, NHP DRG): 1.340 fold; Fold Enrichment relative to AAV9, Heart (NHP) ([1]; NGS fold-enrichment, NHP heart): 14.856 fold; Fold Enrichment relative to AAV9, Liver DNA (NHP) [1, 4]: 0.957 fold; Fold Enrichment relative to AAV9, Liver RNA (NHP) [1, 5]: 1.281 fold; Fold Enrichment relative to AAV9, Muscle (NHP) [1, 6]: 0.827 fold; Fold Enrichment relative to AAV9, Brain (Mouse) [2, 7]: 72.058 fold |
| KTELHSGSPHSKAQNQQT | – | – | – | – | – | – | – | 0.000 | 74.620 | 0.000 | 0.089 | 0.021 | 0.000 | 53.124 | – |
| KTINGSGSPHSKAQSPPT | – | – | – | – | – | – | – | 0.069 | 71.632 | 0.047 | 0.425 | 0.179 | 0.274 | 97.111 | – |
| KTINGSGSPHSKAQGSLT | 54.717 | 0.000 | 0.006 | 0.298 | 0.480 | 0.013 | 142.786 | – | – | – | – | – | – | – | – |
| KAINGSGSPHSKAQNAQT | – | – | – | – | – | – | – | 0.000 | 69.651 | 0.000 | 0.142 | 0.023 | 0.000 | 72.160 | – |
